Test results reported in publication PMC12846068, “Insights into Transport Function of the Murine Organic Anion-Transporting Polypeptide OATP1B2 by Comparison with Its Rat and Human Orthologues” (Toxics, 2025).

Columns and labels:
mOATP1B2 = biological target: T1, mOATP1B2 (Mus musculus, UniProt Q9JJL3); experiment: mOATP1B2-mediated uptake of [3H]-E1S and [3H]-TCA in overexpressing HEK293 cells; assay type: cell-based
T1 construct: The full-length mOATP1B2 and rOATP1B2 consist of 689 and 678 amino acids
T1 sequence (Q9JJL3 1-689): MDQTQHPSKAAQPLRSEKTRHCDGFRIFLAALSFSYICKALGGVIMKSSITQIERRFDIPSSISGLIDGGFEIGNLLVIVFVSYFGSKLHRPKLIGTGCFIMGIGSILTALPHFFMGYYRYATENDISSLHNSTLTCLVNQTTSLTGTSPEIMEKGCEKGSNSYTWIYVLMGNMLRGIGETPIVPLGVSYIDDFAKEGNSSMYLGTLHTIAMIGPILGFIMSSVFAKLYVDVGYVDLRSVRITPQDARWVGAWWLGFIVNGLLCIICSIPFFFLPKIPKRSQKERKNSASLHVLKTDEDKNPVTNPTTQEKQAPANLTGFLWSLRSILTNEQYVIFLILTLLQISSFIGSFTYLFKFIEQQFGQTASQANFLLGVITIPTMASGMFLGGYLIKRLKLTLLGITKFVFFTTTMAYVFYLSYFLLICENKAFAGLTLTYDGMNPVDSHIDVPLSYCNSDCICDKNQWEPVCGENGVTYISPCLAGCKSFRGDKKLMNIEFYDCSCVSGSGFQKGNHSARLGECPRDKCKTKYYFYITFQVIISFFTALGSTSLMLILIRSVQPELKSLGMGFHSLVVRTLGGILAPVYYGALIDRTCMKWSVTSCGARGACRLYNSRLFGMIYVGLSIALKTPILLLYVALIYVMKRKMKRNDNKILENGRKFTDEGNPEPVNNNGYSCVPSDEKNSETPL
Protocol: (§1) To perform transporter-mediated uptake, both stably transfected cells and control cells (seeding density 2 × 10^5) were cultured for three days in 24-well plates (coated with 0.1 mg/mL poly-D-lysine hydrobromide). Then, 24 h before the start of the transport experiment, the gene expression of mOapt1b2 and rOATP1B2 was induced by 1 µg/mL tetracycline. At the beginning of each experiment, the cells were washed three times with pre-warmed 0.5 mL HBSS incubation buffer (supplemented with 20 mM HEPES, pH 7.4) and equilibrated for at least 20 min as described previously [27]. After aspirating the incubation buffer, the uptake process was started by adding 200 µL HBSS incubation buffer containing radio-labeled and unlabeled substances to each well and incubated at 37 °C for an appropriate time. The uptake was stopped by aspirating the reaction mixture and washing the cells 3 times with 0.4 mL ice-cold PBS buffer. After cell lysis with 0.6 mL of 1N NaOH overnight, the whole content of each well (0.6 mL) was transferred to a 6 mL scintillation vial (Sarstedt) containing 2.5 mL scintillation liquid (Rotiszint®eco plus, Carl Roth). The ^3H content was measured in a scintillation counter (Perkin Elmer TRICarb 2810 or HIDEX 600SL). […]
(§2) The absolute amount (pmol) of the radio-labeled probe substrate uptake was calculated and related to the determined protein values as well as the incubation time. […]

rOATP1B2 = biological target: T2, rOATP1B2 (Rattus norvegicus, UniProt Q9QZX8); experiment: rOATP1B2-mediated uptake of [3H]-E1S and [3H]-TCA in overexpressing HEK293 cells; assay type: cell-based; conditions: rOATP1B2, 1 µM substrate; E1S 5 min, TCA 10 min
T2 construct: The full-length mOATP1B2 and rOATP1B2 consist of 689 and 678 amino acids
T2 sequence (Q9QZX8 1-687): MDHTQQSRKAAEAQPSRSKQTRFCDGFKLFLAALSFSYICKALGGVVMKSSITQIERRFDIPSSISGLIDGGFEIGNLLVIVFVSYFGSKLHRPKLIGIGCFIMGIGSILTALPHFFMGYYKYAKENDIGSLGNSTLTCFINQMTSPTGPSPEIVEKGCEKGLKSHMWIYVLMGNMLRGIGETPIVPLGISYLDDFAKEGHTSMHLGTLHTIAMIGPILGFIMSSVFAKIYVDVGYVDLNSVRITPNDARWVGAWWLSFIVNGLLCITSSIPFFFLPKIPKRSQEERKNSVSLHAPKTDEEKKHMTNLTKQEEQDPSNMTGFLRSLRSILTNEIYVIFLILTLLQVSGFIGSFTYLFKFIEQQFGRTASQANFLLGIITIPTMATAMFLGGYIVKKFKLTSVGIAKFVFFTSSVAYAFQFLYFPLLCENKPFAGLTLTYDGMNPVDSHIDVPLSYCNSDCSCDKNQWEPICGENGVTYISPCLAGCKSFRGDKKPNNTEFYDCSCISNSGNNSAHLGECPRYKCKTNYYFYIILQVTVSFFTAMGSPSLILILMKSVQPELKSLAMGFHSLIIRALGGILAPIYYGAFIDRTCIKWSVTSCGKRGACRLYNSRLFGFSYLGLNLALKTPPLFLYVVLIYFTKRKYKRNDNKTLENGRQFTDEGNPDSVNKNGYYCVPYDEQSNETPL
Protocol: as §1, §2

hOATP1B3 = biological target: T3, hOATP1B3 (Homo sapiens, UniProt Q9NPD5); experiment: hOATP1B3-mediated uptake of [3H]-E1S and [3H]-TCA in transfected HEK293 cells
T3 sequence (Q9NPD5 1-702): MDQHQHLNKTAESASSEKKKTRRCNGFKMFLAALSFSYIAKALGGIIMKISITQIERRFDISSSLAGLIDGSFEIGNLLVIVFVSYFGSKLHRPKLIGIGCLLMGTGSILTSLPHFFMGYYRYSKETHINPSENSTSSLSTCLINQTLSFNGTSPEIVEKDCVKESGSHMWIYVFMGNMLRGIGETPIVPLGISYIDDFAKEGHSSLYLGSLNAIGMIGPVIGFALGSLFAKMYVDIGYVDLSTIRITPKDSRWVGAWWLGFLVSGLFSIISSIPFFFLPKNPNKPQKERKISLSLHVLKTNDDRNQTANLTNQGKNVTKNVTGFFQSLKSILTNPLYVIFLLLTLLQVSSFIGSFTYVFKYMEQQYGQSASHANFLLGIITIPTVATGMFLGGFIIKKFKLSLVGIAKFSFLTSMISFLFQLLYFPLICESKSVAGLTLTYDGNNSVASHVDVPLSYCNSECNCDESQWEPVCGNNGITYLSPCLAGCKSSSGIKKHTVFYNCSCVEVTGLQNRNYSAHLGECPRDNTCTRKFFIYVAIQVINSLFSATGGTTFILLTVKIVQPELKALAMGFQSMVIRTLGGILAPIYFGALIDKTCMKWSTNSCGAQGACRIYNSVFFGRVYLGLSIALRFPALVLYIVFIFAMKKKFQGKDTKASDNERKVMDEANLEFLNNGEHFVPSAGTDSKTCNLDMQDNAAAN
Protocol: To perform transporter-mediated uptake, both stably transfected cells and control cells (seeding density 2 × 10^5) were cultured for three days in 24-well plates (coated with 0.1 mg/mL poly-D-lysine hydrobromide). Then, 24 h before the start of the transport experiment, the gene expression of mOapt1b2 and rOATP1B2 was induced by 1 µg/mL tetracycline. At the beginning of each experiment, the cells were washed three times with pre-warmed 0.5 mL HBSS incubation buffer (supplemented with 20 mM HEPES, pH 7.4) and equilibrated for at least 20 min as described previously [27]. After aspirating the incubation buffer, the uptake process was started by adding 200 µL HBSS incubation buffer containing radio-labeled and unlabeled substances to each well and incubated at 37 °C for an appropriate time. The uptake was stopped by aspirating the reaction mixture and washing the cells 3 times with 0.4 mL ice-cold PBS buffer. After cell lysis with 0.6 mL of 1N NaOH overnight, the whole content of each well (0.6 mL) was transferred to a 6 mL scintillation vial (Sarstedt) containing 2.5 mL scintillation liquid (Rotiszint®eco plus, Carl Roth). The ^3H content was measured in a scintillation counter (Perkin Elmer TRICarb 2810 or HIDEX 600SL).
To verify the results for the human transporters, both substrates were tested at a concentration of 0.01 µM. All experiments were conducted at least on two separate days as triplicates.
The absolute amount (pmol) of the radio-labeled probe substrate uptake was calculated and related to the determined protein values as well as the incubation time. The transporter-mediated uptake rate (net uptake) was obtained by subtracting the uptake rate in control (vector only)-transfected HEK293 cells from the uptake rate in transporter-transfected cells. To calculate the Km of the respective substrate, the transporter-mediated net uptake (pmol/mg protein/min) was plotted against the substrate concentrations in SigmaPlot 13. Weighted nonlinear regression was used for curve fitting (ligand binding with one site saturation).

C[C@H](CCC(=O)NCCS(=O)(=O)O)[C@H]1CC[C@H]2[C@@H]3[C@H](O)C[C@@H]4C[C@H](O)CC[C@]4(C)[C@H]3C[C@H](O)[C@]12C [TCA, taurocholate]
uptake compared to vector-transfected control cells (mOATP1B2; mOATP1B2, 1 µM substrate, E1S 5 min, TCA 10 min): more than 100 fold | affinity of mOATP1B2 lower than that of rOATP1B2 (mOATP1B2; ratio of Km values mOATP1B2/rOATP1B2): 4.6 fold | uptake compared to vector-transfected control cells (rOATP1B2): > 70 fold | uptake compared to vector-transfected control cells (hOATP1B3; hOATP1B3, 0.01 µM substrate): 2.7 fold | uptake over control cells / substrate status (hOATP1B3; hOATP1B3, substrate concentration not stated at the place): 2-3 fold | Km at 10 min (hOATP1B3; human, pH 7.4): 21 ± 8 µM
